Patent US20110003760A1, “ABNORMAL PROTEIN REMOVING METHOD” (priority 2005, published 2011)

How the values were obtained:
[1] = system: trypsin-like proteasome activity in three-dimensional human skin model; assay: Proteasome activity in three-dimensional human skin model; format: cell-based; conditions: for proteasome activity compared to the sample not given any treatment under UV irradiation (75%) / proteasome activity compared to the sample not given any treatment: FIG. 11; for proteasome activity compared to the sample not given any treatment: without UV irradiation; for effect on proteasome activity: retinoic acid and retinol at 3 and 10 μM
Protocol: (§1) Three-dimensional human skin models are widely used in safety evaluation and effectiveness evaluation as a simulated model of human skin. In this test, TESTSKIN (LSE-high) (Toyobo Co., Ltd.) was used as a three-dimensional human skin model.
(§2) A culture medium was added to the outer well of TESTSKIN (LSE-high) and cultured for 24 hours. UVA and UVB were irradiated at 10 J/cm^2 and 100 mJ/cm^2, respectively. UVB was irradiated for 2 minutes at a UV intensity of […] using FL20S-E-30/DMR (Clinical Supply Co., Ltd.) to achieve a total irradiation dose of 100 mJ/cm^2. UV intensity was measured using a UV MONITOR MS-211-I (Eiko Instruments Co., Ltd.).
(§3) Thereafter, the culture solution was changed and each agent was added by 100 μl onto the tissues in the assay ring, after which the medium was cultured for 36 hours. Thereafter, the tissues were collected and a tissue extraction solution (50 mM Tris-HCl (pH 7.5), 0.5% (Octylphenoxy) polyethoxyethanol (Sigma-Aldrich Corp.)) was added, and then the mixture was homogenized using a Teflon (registered trademark) homogenizer. The homogenized mixture was centrifuged for 30 minutes at 10,000×G to remove tissue fragments, and then dialyzed overnight in distilled water at 4° C. Thereafter, the dialyzed mixture was freeze-dried to remove water. A tissue extraction solution was added to obtain a ×20 concentrate, and this concentrate was used as a three-dimensional skin model extract sample.
Proteasome activity was measured using a known method (Hayashi, et al., Mechanisms of Aging and Development, Vol. 102, pp. 55-66, 1998) based on cell extract samples.
The specific method is as follows. For the matrix to measure trypsin-like proteasome activity, t-butyloxycarbonyl-L-leucyl-L-arginyl-L-arginyl-L-4-methyl-coumaryl-7-amide (Peptide Institute, Inc.) was used. A cell extract sample containing protein by an equivalent of 10 μg was added to 10.5 μl of a 100 μM matrix solution prepared with 100 mM Tris-HCl (pH 8.0), after which a cell extraction solution was added to a total volume of 50 μl. The obtained solution was treated for 30 minutes at 37° C., after which the fluorescence intensity of the separated 7-amine-4-methyl coumarin was measured at an excitation wavelength (Ex) of 380 nm and absorption waveform (Em) of 440 nm. The result was obtained for each sample type treated with each agent, as an “average ±standard error” calculated from the measured values of three samples.
Based on the above results, it is clear that Bletilla striata extract and silybin promote proteasome activity in a three-dimensional skin model in a manner dependent on the concentration. Accordingly, whether or not a combined use of Bletilla striata extract and silybin would synergistically promote proteasome activity was evaluated. Also, whether or not a combined use of silybin and soybean saponin, a substance known to have an action to promote proteasome activity, would synergistically promote proteasome activity was evaluated. As a result, regardless of whether or not UV light was irradiated, using silybin (3 μM) in combination with Bletilla striata extract (0.1%; final extract concentration of 0.001%), or using silybin (3 μM) in combination with soybean saponin (0.0005%), promoted proteasome activity synergistically compared to when a sample was treated with silybin (3 μM), Bletilla striata extract (0.1%; final extract concentration of 0.001%) or soybean saponin (0.0005%) alone, as far as promotion of proteasome activity in a three-dimensional skin model was concerned (FIG. 12).

[2] = system: carbonylated protein in three-dimensional human skin model TESTSKIN (LSE-high); assay: Carbonylated protein in three-dimensional human skin model, Western blotting (DNPH); format: cell-based; conditions: for Relative photographic density (carbonylated protein): untreated without UV = 100%; for effect on accumulation of carbonylated protein: retinoic acid and retinol at 3 and 10 μM
Protocol: as §1, §2
As a control group, three-dimensional human skin models not irradiated with UVA or UVB were also prepared.
as §3
In this test, 2,4-dinitrophenyl hydrazine (DNPH), which specifically bonds with the carbonyl group in the protein produced by oxidation damage, was used to label carbonylated protein, and then detection was performed using an anti-DNPH antibody that specifically bonds with DNPH.
The specific method is explained below. DNPH protein was detected from the protein in the sample by means of Western blotting using a DNPH kit (Oxi Blot™ Protein Oxidation Detection Kit; Chemicon International Inc.). Detection was performed by exposing PVDF membranes to light using a […] (ECL PLUS; Amarsham PLC), and an automatic developer (FPM100; FUJIFILM Medical Co., Ltd.) was used to transfer images. A densitometer (Molecular Dynamics Inc.) was then used to analyze the images to quantify the photographic density. For your information, protein in the sample was reduced and measured as deemed appropriate. In this case, 2-mercaptoethanol was used as a reducing agent and the mixture was heated for 5 minutes at 100° C. to sever the disulfide bond.
Based on the above results, it is clear that Bletilla striata extract and silybin suppress accumulation of carbonylated protein in a three-dimensional skin model in a manner dependent on the concentration. Accordingly, whether or not a combined use of Bletilla striata extract and silybin would synergistically suppress accumulation of carbonylated protein was evaluated. Also, whether or not a combined use of silybin and soybean saponin, a substance known to have an action to suppress accumulation of carbonylated protein, would synergistically suppress accumulation of carbonylated protein was evaluated. As a result, regardless of whether or not UV light was irradiated using silybin (3 μM) in combination with Bletilla striata extract (0.1%; final extract concentration of 0.001%), or using silybin (3 μM) in combination with soybean saponin (0.0005%), suppressed the accumulation of carbonylated protein synergistically compared to when a sample was treated with silybin (3 μM), Bletilla striata extract (0.1%; final extract concentration of 0.001%) or soybean saponin (0.0005%) alone, as far as accumulation of carbonylated protein in a three-dimensional skin model was concerned (FIG. 7 and Table 7; results of non-reduced protein).

CC1=C(/C=C/C(C)=C/C=C/C(C)=C/CO)C(C)(C)CCC1 [Retinol, all-trans-retinol]
proteasome activity compared to the sample not given any treatment under UV irradiation (75%) ([1]; 10 μM): little change
proteasome activity compared to the sample not given any treatment ([1]; 10 μM): little change
effect on proteasome activity [1]: no effect
amount of carbonylated protein compared to the sample not given any treatment under UV irradiation ([2]; non-reduced protein, 10 μM): little change
Relative photographic density (carbonylated protein) ([2]; non-reduced protein, treatment concentration 10 μM, UV (+)): 315%
Relative photographic density (carbonylated protein) ([2]; non-reduced protein, treatment concentration 10 μM, UV (−)): 115%
Relative photographic density (carbonylated protein) ([2]; non-reduced protein, treatment concentration 10 μM, UV (−), listed as retinol): little change
amount of carbonylated protein compared to the sample not given any treatment under UV irradiation ([2]; reduced protein, 10 μM): little change
Relative photographic density (carbonylated protein) ([2]; reduced protein, treatment concentration 10 μM, UV (+)): 330%
Relative photographic density (carbonylated protein) ([2]; reduced protein, treatment concentration 10 μM, UV (−)): 110%
Relative photographic density (carbonylated protein) ([2]; reduced protein, treatment concentration 10 μM, UV (−), listed as retinol): little change
effect on accumulation of carbonylated protein [2]: no effect

CC1=C(/C=C/C(C)=C/C=C/C(C)=C/C(=O)O)C(C)(C)CCC1 [Retinoic acid, all-trans-retinoic acid]
proteasome activity compared to the sample not given any treatment under UV irradiation (75%) ([1]; 3 μM): little change
proteasome activity compared to the sample not given any treatment ([1]; 3 μM): little change
effect on proteasome activity [1]: no effect
amount of carbonylated protein compared to the sample not given any treatment under UV irradiation ([2]; non-reduced protein, 3 μM): little change
Relative photographic density (carbonylated protein) ([2]; non-reduced protein, treatment concentration 3 μM, UV (+)): 305%
Relative photographic density (carbonylated protein) ([2]; non-reduced protein, treatment concentration 3 μM, UV (−)): 110%
Relative photographic density (carbonylated protein) ([2]; non-reduced protein, treatment concentration 3 μM, UV (−), listed as retinoic acid): little change
amount of carbonylated protein compared to the sample not given any treatment under UV irradiation ([2]; reduced protein, 3 μM): little change
Relative photographic density (carbonylated protein) ([2]; reduced protein, treatment concentration 3 μM, UV (+)): 315%
Relative photographic density (carbonylated protein) ([2]; reduced protein, treatment concentration 3 μM, UV (−)): 105%
Relative photographic density (carbonylated protein) ([2]; reduced protein, treatment concentration 3 μM, UV (−), listed as retinoic acid): little change
effect on accumulation of carbonylated protein [2]: no effect
